Experimental findings from patent US12226409B2, “Treatment of hepatocellular carcinoma” (Eisai R&D Management Co., Ltd., priority 2017, dated 2025) are described below.

The target in one data set is T1, CYP1A2 (Homo sapiens, UniProt P05177).
T1 sequence (P05177 1-516): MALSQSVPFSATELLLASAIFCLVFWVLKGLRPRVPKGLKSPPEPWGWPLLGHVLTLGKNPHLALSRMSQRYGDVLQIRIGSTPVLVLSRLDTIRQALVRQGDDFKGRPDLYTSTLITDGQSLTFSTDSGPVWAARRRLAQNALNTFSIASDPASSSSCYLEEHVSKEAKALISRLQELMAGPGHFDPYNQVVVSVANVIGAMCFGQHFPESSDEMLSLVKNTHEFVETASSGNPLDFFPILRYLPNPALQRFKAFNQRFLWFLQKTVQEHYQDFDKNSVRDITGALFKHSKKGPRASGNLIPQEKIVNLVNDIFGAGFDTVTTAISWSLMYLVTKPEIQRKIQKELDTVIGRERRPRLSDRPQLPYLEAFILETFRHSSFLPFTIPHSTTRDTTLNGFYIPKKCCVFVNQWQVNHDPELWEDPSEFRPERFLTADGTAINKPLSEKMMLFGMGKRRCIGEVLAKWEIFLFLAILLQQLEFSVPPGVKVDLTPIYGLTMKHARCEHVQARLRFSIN
The experiment in a line: In vitro CYP inhibition. It is filed as in vitro ADME.

Data set [1] has as its system unresectable hepatocellular carcinoma (HCC). The experiment in a line: REFLECT study, efficacy per independent review. Type of data set: in vivo, human. As for the experimental part:
The efficacy of LENVIMA was evaluated in a randomized, open-label, multicenter, international study (REFLECT; […]) conducted in patients with previously untreated unresectable hepatocellular carcinoma (HCC).

Another data set deals with CYP2D6 (Homo sapiens, UniProt P10635). Briefly: In vitro CYP inhibition. It is filed as in vitro ADME.
The next data set has as its system unresectable HCC. Briefly: Open-label phase 3 noninferiority study, efficacy (tumor assessment by mRECIST). It is filed as in vivo, human. The source says: (§1) The primary endpoint was overall survival.
Patients who were eligible for enrollment had unresectable HCC with diagnosis confirmed histologically or cytologically or with diagnosis confirmed clinically in accordance with the American Association for the Study of Liver Diseases criteria. Included patients also had ≥1 measureable target lesion, based on modified Response Evaluation Criteria in Solid Tumors (Lencioni 2010); Barcelona Clinic Liver Cancer stage B or C categorization (Bruix Hepatology 2011); Child-Pugh class A; and Eastern Cooperative Oncology Group performance status ≤1. All eligible patients had controlled blood pressure (≤150/90 mm Hg), and adequate organ function. Patients with ≥50% liver occupation, clear bile duct invasion, or portal vein invasion at the main portal vein were excluded. Patients also were excluded if that had received prior systemic therapy for HCC.
(§2) Tumors were evaluated in accordance with mRECIST (Lencioni R., Semin Liver Dis., 30(1):52-60, 2010); RECIST 1.1 was applied for nonhepatic lesions (Eisenhauer, Eur J Cancer, 45(2):228-47, 2009). The liver was examined with computed tomography or magnetic resonance imaging was performed using a triphasic scanning technique. Assessments were performed every 8 weeks until disease progression. Quality of life questionnaires were administered at baseline, on day 1 of each subsequent treatment cycle, and at the off-treatment visit.
The primary endpoint of overall survival was first tested for noninferiority then for superiority. The required number of events for the primary analysis was 700 deaths, based on the fill analysis set. The HR and its 95% confidence interval (CI) were estimated from a Cox proportional hazard model with treatment group as a factor and with the analysis stratified according to the same factors applied for randomization.
A fixed-sequence procedure was followed to control the overall type I error rate of analyses for both the primary and secondary efficacy endpoints at α=0.05 (2-sided). After noninferiority was declared, secondary efficacy endpoints were tested. Differences in progression-free survival and time to progression were evaluated using a stratified log-rank test with randomization stratification factors, with the associated HR and its 95% CI. A difference in the objective response rate was evaluated using the Cochran-Mantel-Haenszel chi-square test with randomized stratification factors as strata, with associated odds ratio and its 95% CI. To assess futility, 2 interim analyses (at 30% and 70% of the target number of events) were performed using Bayesian predictive probability in a noninferiority design by the independent data monitoring committee.

In data set [2] the test system is CYP3A. Briefly: In vitro CYP induction. Type of data set: in vitro ADME.
The subject of data set [3] is patients with unresectable HCC. To be noted: human, in vivo.
Source text: Randomization was stratified according to region (Asia-Pacific or Western regions), macroscopic portal vein invasion and/or extrahepatic spread (yes or no), Eastern Cooperative Oncology Group performance status (0 or 1), and body weight (<60 kg or ≥60 kg).
Safety assessments included recording of vital signs, hematologic and biochemical laboratory testing, urinalysis, and electrocardiography.
The nature of data set [4]: Phase 1 study of lenvatinib in HCC, plasma concentration. It is filed as in vivo, human. To be noted: HCC patients 12 mg per day vs solid tumor patients 25 mg per day.
Data set [5] relates to lenvatinib-treated subjects. The experiment in a line: Clinical studies with lenvatinib, posterior reversible encephalopathy syndrome. As to conditions: human, in vivo. The source says: Mild to severe hypertension also could be present. A magnetic resonance imaging (MRI) was necessary to confirm the diagnosis of PRES. In subjects with signs or symptoms of PRES, appropriate measures were to be taken to control blood pressure, and instructions in Table 6 were followed.

For data set [6], the system named is patients with unresectable HCC. The experiment in a line: Quality of life, EORTC QLQ-C30 and QLQ-HCC18 questionnaires. As to conditions: role functioning, pain, diarrhea (QLQ-C30); nutrition, body image (QLQ-HCC18). It is filed as in vivo, human. The protocol:
as §1, §2

The target in another data set is CYP2C19 (Homo sapiens, UniProt P33261). The experiment in a line: In vitro CYP inhibition. It is filed as in vitro ADME.
The target in another data set is CYP2C9 (Homo sapiens, UniProt P11712). Briefly: In vitro CYP inhibition. It is filed as in vitro ADME.
Data set [7] relates to CYP3A. Briefly: In vitro CYP inhibition. It is filed as in vitro ADME.
The next data set deals with T2, CYP3A4 (Homo sapiens, UniProt P08684).
T2 construct: from tissue; host or cells: human subjects (in vivo)
The experiment in a line: Drug interaction with midazolam (CYP3A4 substrate). As to conditions: projected.

Chain of CYP2C19 (P33261 whole entry): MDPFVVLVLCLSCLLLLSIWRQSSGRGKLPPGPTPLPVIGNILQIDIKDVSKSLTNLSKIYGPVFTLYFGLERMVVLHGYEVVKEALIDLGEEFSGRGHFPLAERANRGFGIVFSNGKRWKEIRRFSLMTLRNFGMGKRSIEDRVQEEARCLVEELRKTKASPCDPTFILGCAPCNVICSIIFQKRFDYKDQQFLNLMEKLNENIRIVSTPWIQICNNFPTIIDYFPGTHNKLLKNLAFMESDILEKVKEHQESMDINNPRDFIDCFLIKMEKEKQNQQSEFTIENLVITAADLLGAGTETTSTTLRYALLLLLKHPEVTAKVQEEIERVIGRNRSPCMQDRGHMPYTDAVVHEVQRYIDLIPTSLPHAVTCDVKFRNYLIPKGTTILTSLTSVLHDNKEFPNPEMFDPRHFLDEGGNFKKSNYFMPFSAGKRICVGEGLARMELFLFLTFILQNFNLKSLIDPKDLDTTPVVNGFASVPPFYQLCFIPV
Chain of CYP2C9 (P11712 whole entry): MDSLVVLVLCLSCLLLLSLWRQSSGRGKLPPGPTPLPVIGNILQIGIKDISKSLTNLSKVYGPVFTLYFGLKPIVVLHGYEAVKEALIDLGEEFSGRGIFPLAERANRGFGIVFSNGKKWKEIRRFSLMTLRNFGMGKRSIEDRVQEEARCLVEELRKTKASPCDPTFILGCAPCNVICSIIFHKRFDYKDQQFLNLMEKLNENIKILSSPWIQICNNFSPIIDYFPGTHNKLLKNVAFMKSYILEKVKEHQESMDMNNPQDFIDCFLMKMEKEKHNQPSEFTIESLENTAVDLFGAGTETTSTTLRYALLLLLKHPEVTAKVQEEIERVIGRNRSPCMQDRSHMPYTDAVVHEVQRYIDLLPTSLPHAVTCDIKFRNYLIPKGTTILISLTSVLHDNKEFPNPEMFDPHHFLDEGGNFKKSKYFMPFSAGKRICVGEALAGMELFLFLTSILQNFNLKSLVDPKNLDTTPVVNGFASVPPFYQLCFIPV
T2 sequence (P08684 whole entry): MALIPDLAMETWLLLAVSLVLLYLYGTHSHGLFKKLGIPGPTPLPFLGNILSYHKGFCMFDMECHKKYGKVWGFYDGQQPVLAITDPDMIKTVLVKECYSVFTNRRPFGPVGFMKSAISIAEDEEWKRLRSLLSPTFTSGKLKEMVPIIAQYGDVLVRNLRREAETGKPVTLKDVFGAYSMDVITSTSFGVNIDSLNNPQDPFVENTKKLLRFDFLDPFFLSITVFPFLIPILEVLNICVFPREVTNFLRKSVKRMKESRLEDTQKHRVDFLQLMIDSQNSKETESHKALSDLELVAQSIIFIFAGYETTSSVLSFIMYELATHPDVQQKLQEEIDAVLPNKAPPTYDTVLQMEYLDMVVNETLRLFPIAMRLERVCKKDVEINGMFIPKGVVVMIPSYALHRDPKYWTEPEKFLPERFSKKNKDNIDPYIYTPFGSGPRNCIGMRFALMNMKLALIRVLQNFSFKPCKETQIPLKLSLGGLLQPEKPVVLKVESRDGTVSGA
Chain of CYP2D6 (P10635 whole entry): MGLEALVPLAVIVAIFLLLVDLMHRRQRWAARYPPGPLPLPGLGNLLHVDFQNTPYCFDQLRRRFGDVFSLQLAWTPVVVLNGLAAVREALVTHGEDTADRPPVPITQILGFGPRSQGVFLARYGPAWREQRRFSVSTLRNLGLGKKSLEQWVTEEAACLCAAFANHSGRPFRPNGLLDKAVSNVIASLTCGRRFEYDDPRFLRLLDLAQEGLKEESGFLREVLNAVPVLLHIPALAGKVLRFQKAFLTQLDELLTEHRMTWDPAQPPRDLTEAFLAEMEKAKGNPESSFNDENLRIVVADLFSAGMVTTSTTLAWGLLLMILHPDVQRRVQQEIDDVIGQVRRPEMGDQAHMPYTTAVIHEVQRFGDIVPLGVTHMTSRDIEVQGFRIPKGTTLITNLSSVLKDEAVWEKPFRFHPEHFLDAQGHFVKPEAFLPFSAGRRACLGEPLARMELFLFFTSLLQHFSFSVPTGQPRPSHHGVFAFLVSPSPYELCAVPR

Take `COc1cc2nccc(Oc3ccc(NC(=O)NC4CC4)c(Cl)c3)c2cc1C(N)=O` [Lenvatinib, 4-(3-chloro-4(cyclopropylaminocarbonyl)aminophenoxy)-7-methoxy-6-quinolinecarboxamide]: the “inhibition of CYP1A2” value against CYP1A2 is listed as “inhibits”. In addition, in data set [1] (in vivo), the “Median OS” value came out at 13.6 months. Moreover, in data set [1] (mRECIST, independent review), the “Median PFS” value is listed as 7.3 months and the Objective response rate was 41%. The “inhibition of CYP2D6” value on CYP2D6 is listed as “inhibits”. For the same compound, in the data set with unresectable HCC (Full Analysis Set), the “Primary reason for discontinuation of treatment: Disease Progression” value is given as 311 (65.1) n (%). In the data set with unresectable HCC (in vivo), the “Durable stable disease lasting ≥23 wk” value is 167 no and the Median overall survival is 13.6 mo. In the data set with unresectable HCC (mRECIST), the Median progression-free survival is recorded as 7.4 mo and the “Median time to progression” value is on record as 8.9 mo. In addition, the “induction of CYP3A” value with CYP3A [2] is “induces”. In data set [3], the “treatment-related fatal cerebral hemorrhage” value came out at 3 patients, the “treatment-related fatal hepatic failure” value is reported as 3 patients and the “treatment-related fatal respiratory failure” value stood at 2 patients. The “lenvatinib plasma concentration at 24 hours” value in data set [4] is given as “similar”. In addition, in [5], the “events of posterior reversible encephalopathy syndrome (PRES)” value is “less than 1%”. In [6], the “time to clinically meaningful deterioration of quality of life” value is given as “clinically meaningful delay in deterioration”. On CYP2C19, the “inhibition of CYP2C19” value was “inhibits”. Besides, the “inhibition of CYP2C9” value against CYP2C9 is reported as “inhibits”. For the same compound, in the data set with CYP3A [7], the “inhibition of CYP3A” value is listed as “inhibits”. Besides, the “drug-drug interaction risk with midazolam” value at CYP3A4 is “no projected significant drug-drug interaction risk”.
